Columns and labels:
CK1δ = CK1δ (Homo sapiens (Human), UniProt P48730); assay: CK1δ kinase assay (Caliper LabChip, fluoresceinated peptide substrate); format: biochemical; conditions: 200 pM CK1δ, 50 μM ATP, 1.5 μM peptide substrate, 22 hours room temperature
Method: (§1) CK1ε and CK1δ Kinase Assays
(§2) The kinase assay was performed in V-bottom 384-well plates. […] The reaction was incubated at room temperature for 22 hours and terminated by adding 45 μl of 35 mM EDTA to each sample. […] Compounds were dissolved at 10 mM in dimethylsulfoxide (DMSO) and evaluated at eleven concentrations. IC50 values were derived by non-linear regression analysis.

CK1ε = CK1ε (Homo sapiens (Human), UniProt P49674); assay: CK1ε kinase assay (Caliper LabChip, fluoresceinated peptide substrate); format: biochemical; conditions: 200 pM CK1ε, 50 μM ATP, 1.5 μM peptide substrate, 22 hours room temperature
Sequence of CK1ε (P49674 whole entry): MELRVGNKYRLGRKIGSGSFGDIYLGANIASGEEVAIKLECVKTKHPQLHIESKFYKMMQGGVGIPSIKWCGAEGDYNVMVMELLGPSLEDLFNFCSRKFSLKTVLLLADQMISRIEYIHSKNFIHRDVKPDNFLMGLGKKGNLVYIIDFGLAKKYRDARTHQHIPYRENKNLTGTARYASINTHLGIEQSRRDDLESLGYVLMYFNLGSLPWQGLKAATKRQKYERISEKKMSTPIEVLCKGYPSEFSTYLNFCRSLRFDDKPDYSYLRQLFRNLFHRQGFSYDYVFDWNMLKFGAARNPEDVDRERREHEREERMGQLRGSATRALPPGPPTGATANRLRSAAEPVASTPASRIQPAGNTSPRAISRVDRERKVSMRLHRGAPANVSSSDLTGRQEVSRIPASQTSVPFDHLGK
Method: as §1, §2

Sequence of CK1δ (P48730 whole entry): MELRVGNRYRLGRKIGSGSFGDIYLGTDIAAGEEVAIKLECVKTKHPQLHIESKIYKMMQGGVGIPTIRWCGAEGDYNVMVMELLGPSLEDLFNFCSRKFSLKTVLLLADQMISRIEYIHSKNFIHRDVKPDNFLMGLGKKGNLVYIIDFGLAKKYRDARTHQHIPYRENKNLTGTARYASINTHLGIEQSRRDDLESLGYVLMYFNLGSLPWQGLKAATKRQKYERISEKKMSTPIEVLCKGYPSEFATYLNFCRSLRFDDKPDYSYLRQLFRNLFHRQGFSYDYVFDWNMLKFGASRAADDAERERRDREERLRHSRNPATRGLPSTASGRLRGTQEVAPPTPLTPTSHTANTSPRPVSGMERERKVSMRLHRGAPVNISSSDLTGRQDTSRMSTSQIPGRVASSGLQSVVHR

SMILES | IC50 (CK1δ) [nM] | IC50 (CK1ε) [nM]
CN1CCC(c2c(-c3ccc4nc(NC(=O)c5ccncc5)cn4n3)c(-c3ccc(F)cc3)nn2C)CC1 [Compound 165, N-(6-(3-(4-Fluorophenyl)-1-methyl-5-(1-methylpiperidin-4-yl)-1H-pyrazol-4-yl)imidazo[1,2-b]pyridazin-2-yl)isonicotinamide] | 2.7 | 5
Cn1nc(-c2ccc(F)cc2)c(-c2ccc3nc(NC(=O)c4ccncc4)cn3n2)c1C1CCN(C2CCOCC2)CC1 [Compound 167, N-(6-(3-(4-fluorophenyl)-1-methyl-5-(1-(tetrahydro-2H-pyran-4-yl)piperidin-4-yl)-1H-pyrazol-4-yl)imidazo[1,2-b]pyridazin-2-yl)isonicotinamide] | 2.4 | 7.7
Cn1nc(-c2ccc(F)cc2)c(-c2ccc3nc(NC(=O)c4ccncc4)cn3n2)c1C1CCN(Cc2cc[nH]n2)CC1 [Compound 170, N-(6-(5-(1-((1H-pyrazol-3-yl)methyl)piperidin-4-yl)-3-(4-fluorophenyl)-1-methyl-1H-pyrazol-4-yl)imidazo[1,2-b]pyridazin-2-yl) isonicotinamide] | 2.6 | 7.4
Cn1nc(-c2ccc(F)cc2)c(-c2ccc3nc(NC(=O)c4ccncc4)cn3n2)c1C1CCN(Cc2cocn2)CC1 [Compound 172, N-(6-(3-(4-fluorophenyl)-1-methyl-5-(1-(oxazol-4-ylmethyl)piperidin-4-yl)-1H-pyrazol-4-yl)imidazo[1,2-b]pyridazin-2-yl) isonicotinamide] | 4.5 | 10.4
Cn1nc(-c2ccc(F)cc2)c(-c2ccc3nc(NC(=O)c4ccncc4)cn3n2)c1C1CCN(Cc2nccs2)CC1 [Compound 173, N-(6-(3-(4-fluorophenyl)-1-methyl-5-(1-(thiazol-2-ylmethyl)piperidin-4-yl)-1H-pyrazol-4-yl)imidazo[1,2-b]pyridazin-2-yl) isonicotinamide] | 1.5 | 6.4
Cc1nc(-c2cccnc2)sc1C(=O)Nc1cn2nc(-c3c(-c4ccc(F)cc4)nn(C)c3C3CCNCC3)ccc2n1 [Compound 174, N-(6-(3-(4-Fluorophenyl)-1-methyl-5-(piperidin-4-yl)-1H-pyrazol-4-yl)imidazo[1,2-b]pyridazin-2-yl)-4-methyl-2-(pyridin-3-yl)thiazole-5-carboxamide] | 2.5 | 1.8
Cc1nc(-c2cccnc2)sc1C(=O)Nc1cn2nc(-c3c(-c4ccc(F)cc4)nn(C)c3C3CCN(C)CC3)ccc2n1 [Compound 175, N-(6-(3-(4-Fluorophenyl)-1-methyl-5-(1-methylpiperidin-4-yl)-1H-pyrazol-4-yl)imidazo[1,2-b]pyridazin-2-yl)-4-methyl-2-(pyridin-3-yl)thiazole-5-carboxamide] | 3 | 4
Cc1nc(-c2ccncc2)sc1C(=O)Nc1cn2nc(-c3c(-c4ccc(F)cc4)nn(C)c3C3CCNCC3)ccc2n1 [Compound 179, N-(6-(3-(4-Fluorophenyl)-1-methyl-5-(piperidin-4-yl)-1H-pyrazol-4-yl)imidazo[1,2-b]pyridazin-2-yl)-4-methyl-2-(pyridin-4-yl)thiazole-5-carboxamide] | 1.4 | 1.5
Cc1nc(-c2ccncc2)sc1C(=O)Nc1cn2nc(-c3c(-c4ccc(F)cc4)nn(C)c3C3CCN(C)CC3)ccc2n1 [Compound 180, N-(6-(3-(4-Fluorophenyl)-1-methyl-5-(1-methylpiperidin-4-yl)-1H-pyrazol-4-yl)imidazo[1,2-b]pyridazin-2-yl)-4-methyl-2-(pyridin-4-yl)thiazole-5-carboxamide] | 2.1 | 7.1
Cc1nc(-c2ccncc2)sc1C(=O)Nc1cn2nc(-c3c(-c4ccc(F)cc4)nn(C)c3C3CCN(Cc4ccon4)CC3)ccc2n1 [Compound 182, N-(6-(3-(4-fluorophenyl)-5-(1-(isoxazol-3-ylmethyl)piperidin-4-yl)-1-methyl-1H-pyrazol-4-yl)imidazo [1,2-b]pyridazin-2-yl)-4-methyl-2-(pyridin-4-yl)thiazole-5-carboxamide] | 1.7 | 0.9
Cn1cc(-c2ccc3nc(Nc4ncccn4)cn3n2)c(-c2ccc(F)cc2)n1 [Compound 185, 6-(3-(4-Fluorophenyl)-1-methyl-1H-pyrazol-4-yl)-N-(pyrimidin-2-yl)imidazo[1,2-b]pyridazin-2-amine] | 16 | 48
Cn1cc(-c2ccc3nc(NC(=O)Nc4ccccc4)cn3n2)c(-c2ccc(F)cc2)n1 [Compound 186, 1-(6-(3-(4-Fluorophenyl)-1-methyl-1H-pyrazol-4-yl)imidazo[1,2-b]pyridazin-2-yl)-3-phenylurea] | 14.6 | 114
Cn1cc(-c2ccc3nc(NC(=O)OCc4ccccc4)cn3n2)c(-c2ccc(F)cc2)n1 [Compound 187, Benzyl 6-(3-(4-fluorophenyl)-1-methyl-1H-pyrazol-4-yl)imidazo[1,2-b]pyridazin-2-ylcarbamate] | 51.5 | > 2000
Cn1cc(-c2ccc3nc(NC(=O)c4ccccc4)c(Br)n3n2)c(-c2ccc(F)cc2)n1 [Compound 189, N-(3-Bromo-6-(3-(4-fluorophenyl)-1-methyl-1H-pyrazol-4-yl)imidazo[1,2-b]pyridazin-2-yl)benzamide] | 38.8 | 257
Cn1cc(-c2ccc3nc(NC(=O)c4ccccc4)c(C#N)n3n2)c(-c2ccc(F)cc2)n1 [Compound 190, N-(3-Cyano-6-(3-(4-fluorophenyl)-1-methyl-1H-pyrazol-4-yl)imidazo[1,2-b]pyridazin-2-yl)benzamide] | 4.2 | 14.5
Cn1cc(-c2ccc3nc(NC(=O)c4ccccc4)c(Cl)n3n2)c(-c2ccc(F)cc2)n1 [Compound 191, N-(3-Chloro-6-(3-(4-fluorophenyl)-1-methyl-1H-pyrazol-4-yl)imidazo[1,2-b]pyridazin-2-yl)benzamide] | 24.5 | 153

The remaining compounds from weak to strong by IC50 (CK1δ), led by results:

IC50 (CK1δ) [nM] | IC50 (CK1ε) [nM] | SMILES
1.4 | 1.9 | Cn1nc(-c2ccc(F)cc2)c(-c2ccc3nc(NC(=O)c4ccncc4)cn3n2)c1C1CCN(C2CC2)CC1 [Compound 166, N-(6-(5-(1-cyclopropylpiperidin-4-yl)-3-(4-fluorophenyl)-1-methyl-1H-pyrazol-4-yl)imidazo[1,2-b]pyridazin-2-yl)isonicotinamide]
1.4 | 0.8 | Cn1nc(-c2ccc(F)cc2)c(-c2ccc3nc(NC(=O)c4ccncc4)cn3n2)c1C1CCN(Cc2ccon2)CC1 [Compound 169, N-(6-(3-(4-fluorophenyl)-5-(1-(isoxazol-3-ylmethyl)piperidin-4-yl)-1-methyl-1H-pyrazol-4-yl)imidazo[1,2-b]pyridazin-2-yl)isonicotinamide]
1.3 | 1.5 | Cn1nc(-c2ccc(F)cc2)c(-c2ccc3nc(NC(=O)c4ccncc4)cn3n2)c1C1CCN(CCO)CC1 [Compound 168, N-(6-(3-(4-fluorophenyl)-5-(1-(2-hydroxyethyl)piperidin-4-yl)-1-methyl-1H-pyrazol-4-yl)imidazo[1,2-b]pyridazin-2-yl)isonicotinamide]
1.1 | 14.3 | Cc1nc(-c2ccncc2)sc1C(=O)Nc1cn2nc(-c3c(-c4ccc(F)cc4)nn(C)c3C3CCN(CCC(F)(F)F)CC3)ccc2n1 [Compound 181, N-(6-(3-(4-fluorophenyl)-1-methyl-5-(1-(3,3,3-trifluoropropyl)piperidin-4-yl)-1H-pyrazol-4-yl)imidazo[1,2-b]pyridazin-2-yl)-4-methyl-2-(pyridin-4-yl)thiazole-5-carboxamide]
1 | 0.4 | Cc1nc(-c2cccnc2)sc1C(=O)Nc1cn2nc(-c3c(-c4ccc(F)cc4)nn(C)c3C3CCN(Cc4ccon4)CC3)ccc2n1 [Compound 176, N-(6-(3-(4-fluorophenyl)-5-(1-(isoxazol-3-ylmethyl)piperidin-4-yl)-1-methyl-1H-pyrazol-4-yl)imidazo[1,2-b]pyridazin-2-yl)-4-methyl-2-(pyridin-3-yl)thiazole-5-carboxamide]
0.7 | 12.2 | Cc1nc(-c2cccnc2)sc1C(=O)Nc1cn2nc(-c3c(-c4ccc(F)cc4)nn(C)c3C3CCN(CCC(F)(F)F)CC3)ccc2n1 [Compound 177, N-(6-(3-(4-fluorophenyl)-1-methyl-5-(1-(3,3,3-trifluoropropyl)piperidin-4-yl)-1H-pyrazol-4-yl)imidazo[1,2-b]pyridazin-2-yl)-4-methyl-2-(pyridin-3-yl)thiazole-5-carboxamide]
0.4 | 2.4 | Cc1nc(-c2ccncc2)sc1C(=O)Nc1cn2nc(-c3c(-c4ccc(F)cc4)nn(C)c3C3CCN(CCC#N)CC3)ccc2n1 [Compound 183, N-(6-(5-(1-(2-Cyanoethyl)piperidin-4-yl)-3-(4-fluorophenyl)-1-methyl-1H-pyrazol-4-yl)imidazo[1,2-b]pyridazin-2-yl)-4-methyl-2-(pyridin-4-yl)thiazole-5-carboxamide]
0.3 | 1.2 | Cc1nc(-c2ccncc2)sc1C(=O)Nc1cn2nc(-c3c(-c4ccc(F)cc4)nn(C)c3C3CCN(CC(N)=O)CC3)ccc2n1 [Compound 184, N-(6-(5-(1-(2-Amino-2-oxoethyl)piperidin-4-yl)-3-(4-fluorophenyl)-1-methyl-1H-pyrazol-4-yl)imidazo[1,2-b]pyridazin-2-yl)-4-methyl-2-(pyridin-4-yl)thiazole-5-carboxamide]
0.2 | 1.3 | Cc1nc(-c2cccnc2)sc1C(=O)Nc1cn2nc(-c3c(-c4ccc(F)cc4)nn(C)c3C3CCN(CC(N)=O)CC3)ccc2n1 [Compound 178, N-(6-(5-(1-(2-Amino-2-oxoethyl)piperidin-4-yl)-3-(4-fluorophenyl)-1-methyl-1H-pyrazol-4-yl)imidazo[1,2-b]pyridazin-2-yl)-4-methyl-2-(pyridin-3-yl)thiazole-5-carboxamide]

— patent US9475817B2 (BRISTOL-MYERS SQUIBB COMPANY, priority 2012, dated 2016)
